# Earlier results in PMC11975010 (Drug Design, Development and Therapy, 2025).
# Where two headings read alike, the source gives them in different places.
# Tests used:
# [1] = at 25 °C
# [2] = poor solubility in water and high permeability
# [3] = administered as HP-β-CD complex formulation
# [4] = not given; remark: listed apart in the source
structure (smiles),measurement,setting,value
"CC(O)COC[C@H]1O[C@@H]2O[C@H]3[C@H](O)[C@@H](O)[C@@H](O[C@H]4[C@H](O)[C@@H](O)[C@@H](O[C@H]5[C@H](O)[C@@H](O)[C@@H](O[C@H]6[C@H](O)[C@@H](O)[C@@H](O[C@H]7[C@H](O)[C@@H](O)[C@@H](O[C@H]8[C@H](O)[C@@H](O)[C@@H](O[C@H]1[C@H](O)[C@H]2O)O[C@@H]8COCC(C)O)O[C@@H]7COCC(C)O)O[C@@H]6COCC(C)O)O[C@@H]5COCC(C)O)O[C@@H]4COCC(C)O)O[C@@H]3COCC(C)O (stereo partly drawn) [HP-β-CD, hydroxypropyl-beta-cyclodextrin]",Aqueous solubility,[1],approximately 600 mg/mL
"COc1ccc(CN=c2[nH]c(N3CCC[C@H]3CO)ncc2C(=O)NCc2ncccn2)cc1Cl [AVA, Avanafil]",Action duration,,up to 12 hours
same,Biopharmaceutical Classification System class,[2],class II
C[C@@H]1C[C@H]2[C@@H]3CCC4=CC(=O)C=C[C@]4(C)[C@@]3(F)[C@@H](O)C[C@]2(C)[C@@]1(O)C(=O)CO [dexamethasone],Clearance,[3],lower clearance
CC[C@@]1(O)C(=O)OCc2c1cc1n(c2=O)Cc2cc3ccccc3nc2-1 [camptothecin],Lactone ring hydrolysis,[4]; before stabilization in HP-β-CD,40%
same,Lactone ring hydrolysis,[4]; stabilized in HP-β-CD cavities,6.7%
